Laboratory results as given in patent US20190359645A1, “2'3'-CYCLIC DINUCLEOTIDES COMPRISING CARBOCYCLIC NUCLEOTIDE” (Institute of Organic Chemistry and Biochemistry ASCR, V.V.I., priority 2018, published 2019).

What follows are compounds tested against WT STING (Homo sapiens, UniProt Q86WV6, H232R) (assay: Digitonin assay using 293T wtSTING-FL reporter cells). Conditions: 293T wtSTING-FL cells, digitonin buffer 30 min, then 5 h, ISRE firefly luciferase reporter; read-out: Digitonin assay EC50 WT STING.
Type: cell-based
Set-up: host or cells: 293T (ATCC CRL-3216), stably transfected; also carries the 4xISRE firefly luciferase reporter
Text: Two complementary oligonucleotides of the sequence […] […] […] […] (SEQ ID NO: 1) and […] […] (SEQ ID NO:2) containing four interferon-sensitive response elements (ISRE) were synthesized by Sigma Aldrich (Czech Republic, Prague). The oligonucleotides were mixed in equal molar amounts, hybridized, and cleaved by restriction endonucleases HindIII (cat. #. R^0104S, NEB, Ipswich, USA) and BglII (cat. # R^0144S, NEB, Ipswich, USA). Ultimately, they were ligated into plasmid pGL4.27 (cat. # E6651, Promega, Madison, USA) linearized with the same enzymes. As a result, the sequence with four ISRE sites was placed upstream of the minimum promoter of firefly luciferase reporter gene.
293T cells (cat. # CRL-3216, ATCC, Manassas, USA) were seeded a day before transfection at density 125,000 cells per cm^2 onto poly-D-lysine (cat. # P6407, Sigma Aldrich, Czech Republic) coated six well plates in antibiotic free DMEM with high glucose (cat. # D5796, Sigma Aldrich, Czech Republic) supplemented with 10% heat inactivated FBS (cat. # S1520, Biowest, Riverside, USA). On the day of transfection, 2.5 μg of the plasmid pUNO1-hSTING-WT (cat. # punol-hstingwt, InvivoGen, San Diego, USA,) encoding human wild type STING (WT STING) was diluted in 125 μL OptiMEM medium (cat. #31985062, ThermoFisher, Waltham, USA) and mixed with 125 μL of the same medium containing 12.5 μL of Lipofectamine 2000 (cat. #11668019, ThermoFisher, Waltham, USA). After 5 minutes incubation at room temperature (RT), 250 μL of the mixture was added dropwise to the cells in one well. Cells were incubated 36 hours at 37° C. with 5% CO2, and then detached with 0.05% Trypsin and 0.22 g/L EDTA (both cat. # L0941, Biowest, Riverside, USA).
Transfected cells were seeded onto poly-D-lysine coated six well plates at density 50,000 cells per 1 cm^2 in DMEM medium with high glucose containing 10% heat inactivated FBS, […] blasticidin (cat. # ant-bl-05, InvivoGen, San Diego, USA), 0.06 mg/ml Penicillin G and 0.1 mg/ml Streptomycin Sulfate (both cat. #. L0018, Biowest, Riverside, USA). The medium was replenished every 3-4 days until visible colonies of cells resistant to blasticidin were formed.
Blasticidin resistant cells stably expressing WT STING were further transfected with […] plasmid following the same procedure as described above. The transfected cells were selected for the resistance to 300 μg/mL hygromycin (cat. #. 10687010, ThermoFisher, Waltham, USA) in DMEM with high glucose containing 10% heat inactivated FBS, […] blasticidin, 0.06 mg/ml Penicillin G and 0.1 mg/ml Streptomycin Sulfate. Homogeneous culture of stably double transfected cells was prepared by limiting dilution of cells in 96 well plates and wells with cells were selected that originated from a single cell. These cells were expanded, and expression of WT STING was confirmed by western blot using monoclonal mouse anti STING antibodies (cat. #. MAB7169, 1:1000 dilution; […] cat. #. HAF007, 1:2000 dilution, both from R&D Systems, Minneapolis, USA), and by induction of firefly luciferase expression in the presence of 50 μM STING agonist 2′3′ cGAMP (cat. # tlrl-nacga23, InvivoGen, San Diego, USA). Genomic DNA from the transfected cells was amplified with primers pUNO1_Seq_F ([…]) (SEQ ID NO:3) and pUNO1_Seq_R ([…]) (SEQ ID NO:4) that were complementary to pUNO1 plasmid and the presence of WT STING gene in the transfected cells was confirmed by DNA sequencing.
293T wtSTING-FL cells were seeded at density of 250,000 cells per cm^2 onto 96 well poly-D-lysine coated plates in 100 μl DMEM with high glucose supplemented with 10% heat inactivated FBS. […]

Chain of WT STING (Q86WV6 whole entry H232R): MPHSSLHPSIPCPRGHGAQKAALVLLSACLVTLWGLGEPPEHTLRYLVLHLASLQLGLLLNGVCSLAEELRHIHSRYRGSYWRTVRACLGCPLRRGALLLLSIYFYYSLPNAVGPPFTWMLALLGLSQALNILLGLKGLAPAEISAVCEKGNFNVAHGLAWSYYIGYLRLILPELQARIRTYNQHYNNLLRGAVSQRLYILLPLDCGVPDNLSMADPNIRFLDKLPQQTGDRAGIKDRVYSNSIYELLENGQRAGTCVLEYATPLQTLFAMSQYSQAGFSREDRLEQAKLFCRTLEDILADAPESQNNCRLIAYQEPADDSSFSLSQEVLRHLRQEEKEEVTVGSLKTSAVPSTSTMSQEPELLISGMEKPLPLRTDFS

| SMILES | EC50 [nM] |
| --- | --- |
| Nc1ncnc2c1ncn2[C@@H]1O[C@@H]2COP(=O)(S)O[C@@H]3[C@H](F)[C@@H](COP(=O)(S)O[C@H]2[C@H]1F)C[C@H]3n1cnc2c(=O)[nH]cnc21 (single isomer, unassigned) [Compound 128a] | 40 |
| Nc1ncnc2c1ncn2[C@@H]1O[C@@H]2COP(=O)(S)O[C@@H]3[C@H](F)[C@@H](COP(=O)(S)O[C@H]2[C@H]1F)C[C@H]3n1cnc2c(=O)[nH]cnc21 (single isomer, unassigned) [Compound 128b] | 400 |
| Nc1ncnc2c1ncn2[C@@H]1O[C@@H]2COP(=O)(S)O[C@@H]3[C@H](F)[C@@H](COP(=O)(S)O[C@H]2[C@H]1F)C[C@H]3n1cnc2c(=O)[nH]cnc21 (single isomer, unassigned) [Compound 128c] | 60 |
| Nc1ncnc2c1ncn2[C@@H]1O[C@@H]2COP(=O)(S)O[C@@H]3[C@H](F)[C@@H](COP(=O)(S)O[C@H]2[C@H]1F)C[C@H]3n1cnc2c(=O)[nH]cnc21 (single isomer, unassigned) [Compound 128d] | 20 |
| Nc1nc2c(ncn2[C@@H]2C[C@@H]3COP(=O)(O)OC4C(O)[C@H](n5cnc6c(N)ncnc65)O[C@@H]4COP(=O)(O)OC2C3O)c(=O)[nH]1 (stereo partly drawn) [Compound 102, (6R,8R,15R,17R)-17-(2-amino-6-oxo-6,9-dihydro-1H-purin-9-yl)-8-(6-amino-9H-purin-9-yl)-3,9,12,18-tetrahydroxy-2,4,7,11,13-pentaoxa-3λ^5,12λ^5-diphosphatricyclo[13.2.1.0^6,10]octadecane-3,12-dione] | 100 |
| Nc1nc2c(ncn2[C@@H]2C[C@@H]3COP(=O)(O)OC4C(O)[C@H](n5cnc6c(N)nc(F)nc65)O[C@@H]4COP(=O)(O)OC2C3O)c(=O)[nH]1 (stereo partly drawn) [Compound 103, (6R,8R,15R,17R)-8-(6-amino-2-fluoro-9H-purin-9-yl)-17-(2-amino-6-oxo-6,9-dihydro-1H-purin-9-yl)-3,9,12,18-tetrahydroxy-2,4,7,11,13-pentaoxa-3λ^5,12λ^5-diphosphatricyclo[13.2.1.0^6,10]octadecane-3,12-dione] | 1500 |
| Nc1nc2c(ncn2[C@@H]2C[C@@H]3COP(=O)(O)OC4C(O)[C@H](n5cnc6c(=O)[nH]cnc65)O[C@@H]4COP(=O)(O)OC2C3O)c(=O)[nH]1 (stereo partly drawn) [Compound 104, (6R,8R,15R,17R)-17-(2-amino-6-oxo-6,9-dihydro-1H-purin-9-yl)-3,9,12,18-tetrahydroxy-8-(6-oxo-6,9-dihydro-1H-purin-9-yl)-2,4,7,11,13-pentaoxa-3λ^5,12λ^5-diphosphatricyclo[13.2.1.0^6,10]octadecane-3,12-dione] | 100 |
| Nc1nc(N)c2ncn([C@@H]3O[C@@H]4COP(=O)(O)OC5C(O)[C@@H](COP(=O)(O)OC4C3O)C[C@H]5n3cnc4c(=O)[nH]c(N)nc43)c2n1 (stereo partly drawn) [Compound 105, (6R,8R,15R,17R)-17-(2-amino-6-oxo-6,9-dihydro-1H-purin-9-yl)-8-(2,6-diamino-9H-purin-9-yl)-3,9,12,18-tetrahydroxy-2,4,7,11,13-pentaoxa-3λ^5,12λ^5-diphosphatricyclo[13.2.1.0^6,10]octadecane-3,12-dione] | 500 |
| Nc1ncc2ncn([C@@H]3O[C@@H]4COP(=O)(O)OC5C(O)[C@@H](COP(=O)(O)OC4C3O)C[C@H]5n3cnc4c(=O)[nH]c(N)nc43)c2n1 (stereo partly drawn) [Compound 106, (6R,8R,15R,17R)-17-(2-amino-6-oxo-6,9-dihydro-1H-purin-9-yl)-8-(2-amino-9H-purin-9-yl)-3,9,12,18-tetrahydroxy-2,4,7,11,13-pentaoxa-3λ^5,12λ^5-diphosphatricyclo[13.2.1.0^6,10]octadecane-3,12-dione] | 200 |
| Nc1nc2c(ncn2[C@@H]2C[C@@H]3COP(=O)(O)OC4C(O)[C@H](n5cnc6c(S)ncnc65)O[C@@H]4COP(=O)(O)OC2C3O)c(=O)[nH]1 (stereo partly drawn) [Compound 107, (6R,8R,15R,17R)-17-(2-amino-6-oxo-6,9-dihydro-1H-purin-9-yl)-3,9,12,18-tetrahydroxy-8-(6-sulfanyl-9H-purin-9-yl)-2,4,7,11,13-pentaoxa-3λ^5,12λ^5-diphosphatricyclo[13.2.1.0^6,10]octadecane-3,12-dione] | 6400 |
| CNc1ncnc2c1ncn2[C@@H]1O[C@@H]2COP(=O)(O)OC3C(O)[C@@H](COP(=O)(O)OC2C1O)C[C@H]3n1cnc2c(=O)[nH]c(N)nc21 (stereo partly drawn) [Compound 108, (6R,8R,15R,17R)-17-(2-amino-6-oxo-6,9-dihydro-1H-purin-9-yl)-3,9,12,18-tetrahydroxy-8-[6-(methylamino)-9H-purin-9-yl]-2,4,7,11,13-pentaoxa-3λ^5,12λ^5-diphosphatricyclo[13.2.1.0^6,10]octadecane-3,12-dione] | 170 |
| Nc1nc2c(ncn2[C@@H]2C[C@@H]3COP(=O)(O)OC4C(N)[C@H](n5cnc6c(N)ncnc65)O[C@@H]4COP(=O)(O)OC2C3O)c(=O)[nH]1 (stereo partly drawn) [Compound 109, (6R,8R,15R,17R)-9-amino-17-(2-amino-6-oxo-6,9-dihydro-1H-purin-9-yl)-8-(6-amino-9H-purin-9-yl)-3,12,18-trihydroxy-2,4,7,11,13-pentaoxa-3λ^5,12λ^5-diphosphatricyclo[13.2.1.0^6,10]octadecane-3,12-dione] | 130 |
| CSc1ncnc2c1ncn2[C@@H]1O[C@@H]2COP(=O)(O)OC3C(O)[C@@H](COP(=O)(O)OC2C1O)C[C@H]3n1cnc2c(=O)[nH]c(N)nc21 (stereo partly drawn) [Compound 110, (6R,8R,15R,17R)-17-(2-amino-6-oxo-6,9-dihydro-1H-purin-9-yl)-3,9,12,18-tetrahydroxy-8-[6-(methylsulfanyl)-9H-purin-9-yl]-2,4,7,11,13-pentaoxa-3λ^5,12λ^5-diphosphatricyclo[13.2.1.0^6,10]octadecane-3,12-dione] | 230 |
| Nc1nc2c(ncn2[C@@H]2C[C@@H]3COP(=O)(O)OC4C(F)[C@H](n5cnc6c(N)nc(F)nc65)O[C@@H]4COP(=O)(O)OC2C3O)c(=O)[nH]1 (stereo partly drawn) [Compound 111, (6R,8R,15R,17R)-8-(6-amino-2-fluoro-9H-purin-9-yl)-17-(2-amino-6-oxo-6,9-dihydro-1H-purin-9-yl)-9-fluoro-3,12,18-trihydroxy-2,4,7,11,13-pentaoxa-3λ^5,12λ^5-diphosphatricyclo[13.2.1.0^6,10]octadecane-3,12-dione] | 30 |
| CSc1nc(N)nc2c1ncn2[C@@H]1O[C@@H]2COP(=O)(O)OC3C(O)[C@@H](COP(=O)(O)OC2C1O)C[C@H]3n1cnc2c(=O)[nH]c(N)nc21 (stereo partly drawn) [Compound 112, (6R,8R,15R,17R)-8-[2-amino-6-(methylsulfanyl)-9H-purin-9-yl]-17-(2-amino-6-oxo-6,9-dihydro-1H-purin-9-yl)-3,9,12,18-tetrahydroxy-2,4,7,11,13-pentaoxa-3λ^5,12λ^5-diphosphatricyclo[13.2.1.0^6,10]octadecane-3,12-dione] | 15100 |

Same assay, conditions: Digitonin assay EC50 WT STING, 293T wtSTING-FL cells, digitonin buffer 30 min, then 5 h, ISRE firefly luciferase reporter

| SMILES | EC50 [nM] |
| --- | --- |
| Nc1nc2c(ncn2[C@@H]2C[C@@H]3COP(=O)(O)OC4C(O)[C@H](n5cnc6c(N)ncnc65)O[C@@H]4COP(O)(=S)OC2C3O)c(=O)[nH]1 (stereo partly drawn) [Compound 101, 2-amino-9-[(6R,8R,15R,17R)-8-(6-amino-9H-purin-9-yl)-3,9,12,18-tetrahydroxy-12-oxo-3-sulfanylidene-2,4,7,11,13-pentaoxa-3λ^5,12λ^5-diphosphatricyclo[13.2.1.0^6,10]octadecan-17-yl]-6,9-dihydro-1H-purin-6-one] | 10 |
